From PMC8138313, “Identification, Selection and Immune Assessment of Liver Stage CD8 T Cell Epitopes From Plasmodium falciparum” (Frontiers in Immunology, 2021)
Where a SMILES comes first, the peptide text is derived from it.

Columns and labels:
Experiment in all cases: HLA class I binding assay (cell-free competition, fluorescence polarization)
HLA B*0702 = HLA B*0702 (Homo sapiens, UniProt P01889)
HLA A*2402 = HLA A*2402 (Homo sapiens, UniProt P04439, D101N/D140Y/D185E/E176V/E190D/F33S/G103R/G107R/I119L/I121M/I306V/K335N/L105A/L180Q/L300P/N151K/N90K/Q86E/Q94H/R106L/R138H/R89G/T104I/T345S/V100E/W191G/Y123F)
HLA B*4402 = HLA B*4402 (Homo sapiens, UniProt P01889, A223V/A65T/A93T/A95T/D201E/D98Y/E176V/E187L/E204Q/E69K/G107R/H137Y/K202T/L105A/L119I/N104T/N87E/Q56L/Q94N/R106L/R155S/R180D/S101N/S121R/S35A/S48T/T118I/V36M/W191S/Y140D/Y91S)
HLA A*0201 = HLA A*0201 (Homo sapiens, UniProt P04439, D140Y/D185E/D98H/E176V/E277Q/G131W/G231S/I119V/I121R/I166T/I218V/L300P/L318F/N151K/N90K/P208A/P217A/Q86G/Q94H/R138H/R169H/T345S)
HLA A*0301 = HLA A*0301 (Homo sapiens, UniProt P04439)
HLA A*0101 = HLA A*0101 (Homo sapiens, UniProt P04439, A114D/A174V/A182V/D101N/D185E/E176A/E190D/L180R/Q94H/R68K/S129P/T187R/V100A/V91M/W191G)

Structure (SMILES) | IC50 (HLA B*0702) [µM] | also measured
CC[C@H](C)[C@H](NC(=O)[C@@H](N)[C@@H](C)O)C(=O)N[C@@H](Cc1ccc(O)cc1)C(=O)NCC(=O)N[C@@H](CCCCN)C(=O)NCC(=O)NCC(=O)N[C@@H](Cc1ccccc1)C(=O)N[C@@H](CCC(N)=O)C(=O)N[C@@H](Cc1ccccc1)C(=O)O (H-TIYGKGGFQF-OH) | 109 | 
CC(C)C[C@H](NC(=O)[C@H](C)NC(=O)[C@H](CO)NC(=O)[C@@H](NC(=O)[C@H](CCCCN)NC(=O)[C@H](CC(=O)O)NC(=O)[C@H](CCCNC(=N)N)NC(=O)[C@H](CS)NC(=O)[C@@H](N)Cc1c[nH]cn1)[C@@H](C)O)C(=O)O [HCRDKTSAL] (H-HCRDKTSAL-OH) | 28.6 | 
CC(C)C[C@H](NC(=O)[C@H](Cc1ccccc1)NC(=O)[C@@H]1CCCN1C(=O)[C@@H](N)Cc1c[nH]cn1)C(=O)N[C@@H](CCCCN)C(=O)N[C@@H](CO)C(=O)NCC(=O)N[C@@H](Cc1ccccc1)C(=O)N[C@H](C(=O)N[C@@H](Cc1ccccc1)C(=O)O)[C@@H](C)O (H-HPFLKSGFTF-OH) | 0.226 | IC50 (HLA A*2402): 10.5 µM; IC50 (HLA B*4402): > 1000 µM
CC[C@H](C)[C@H](NC(=O)[C@H](CC(N)=O)NC(=O)[C@@H](N)CCCNC(=N)N)C(=O)N[C@H](C(=O)N[C@@H](CO)C(=O)N[C@@H](CCCCN)C(=O)N[C@@H](Cc1c[nH]cn1)C(=O)N[C@H](C(=O)N[C@@H](CO)C(=O)N[C@H](C(=O)O)C(C)C)[C@@H](C)O)[C@@H](C)CC (H-RNIISKHTSV-OH) | 505 | 
N=C(N)NCCC[C@H](NC(=O)[C@H](Cc1ccc(O)cc1)NC(=O)[C@H](CCCCN)NC(=O)[C@@H]1CCCN1C(=O)[C@@H](N)Cc1c[nH]cn1)C(=O)N[C@@H](CC(N)=O)C(=O)N[C@@H](Cc1ccccc1)C(=O)N[C@@H](CCCCN)C(=O)N[C@@H](Cc1ccccc1)C(=O)O (H-HPKYRNFKF-OH) | 0.336 | 
CC[C@H](C)[C@H](NC(=O)[C@@H]1CCCN1C(=O)[C@@H](N)CC(C)C)C(=O)N[C@@H](CCC(=O)O)C(=O)N1CCC[C@H]1C(=O)N[C@@H](CCCCN)C(=O)N[C@@H](CCCCN)C(=O)N[C@@H](CC(C)C)C(=O)N[C@@H](C)C(=O)O (H-LPIEPKKLA-OH) | 561 | 
CSCC[C@H](NC(=O)[C@H](CCC(=O)O)NC(=O)[C@@H](N)[C@@H](C)O)C(=O)N[C@@H](Cc1ccccc1)C(=O)N[C@@H](CCCCN)C(=O)N[C@@H](CC(C)C)C(=O)N[C@@H](CCCNC(=N)N)C(=O)N[C@@H](CC(C)C)C(=O)N[C@@H](CC(N)=O)C(=O)N[C@@H](CC(C)C)C(=O)O (H-TEMFKLRLNL-OH) | > 1000 | IC50 (HLA A*2402): 58.2 µM; IC50 (HLA B*4402): 54.8 µM
CC(C)C[C@H](NC(=O)[C@H](CO)NC(=O)[C@@H]1CCCN1C(=O)[C@H](CCCCN)NC(=O)[C@H](CC(N)=O)NC(=O)[C@H](CC(C)C)NC(=O)[C@H](CC(C)C)NC(=O)[C@H](CCCCN)NC(=O)[C@@H]1CCCN1C(=O)[C@@H](N)Cc1ccccc1)C(=O)O (H-FPKLLNKPSL-OH) | 73.1 | 
CC(C)C[C@H](NC(=O)[C@H](CC(=O)O)NC(=O)[C@H](CCCNC(=N)N)NC(=O)[C@H](CCCNC(=N)N)NC(=O)[C@H](CC(=O)O)NC(=O)[C@H](CO)NC(=O)[C@H](CC(N)=O)NC(=O)[C@H](CC(C)C)NC(=O)[C@@H](N)CC(C)C)C(=O)O (H-LLNSDRRDL-OH) | 0.2 | 
CC(C)C[C@H](NC(=O)[C@H](CC(N)=O)NC(=O)[C@H](CC(C)C)NC(=O)[C@@H](N)CCCNC(=N)N)C(=O)N[C@@H](Cc1ccccc1)C(=O)N[C@@H](CS)C(=O)N[C@@H](Cc1ccccc1)C(=O)N[C@@H](CO)C(=O)N[C@@H](Cc1ccccc1)C(=O)O (H-RLNLFCFSF-OH) |  | IC50 (HLA A*2402): 11 µM; IC50 (HLA B*4402): > 1000 µM
CC(C)C[C@H](NC(=O)[C@H](Cc1ccccc1)NC(=O)[C@H](CO)NC(=O)[C@H](Cc1ccccc1)NC(=O)[C@H](CS)NC(=O)[C@H](Cc1ccccc1)NC(=O)[C@H](CC(C)C)NC(=O)[C@H](CC(N)=O)NC(=O)[C@H](CC(C)C)NC(=O)[C@@H](N)CCCNC(=N)N)C(=O)O (H-RLNLFCFSFL-OH) |  | IC50 (HLA A*0201): 161 µM; IC50 (HLA A*0301): 6.12 µM; IC50 (HLA B*4402): 421 µM
CC[C@H](C)[C@H](NC(=O)[C@@H]1CCCN1C(=O)[C@@H](N)Cc1ccc(O)cc1)C(=O)N[C@@H](CCC(=O)O)C(=O)N[C@@H](CCCCN)C(=O)N[C@@H](CC(C)C)C(=O)NCC(=O)N[C@@H](Cc1c[nH]cn1)C(=O)N[C@H](C(=O)O)C(C)C (H-YPIEKLGHV-OH) | 0.257 | 
CSCC[C@H](NC(=O)[C@@H](NC(=O)[C@H](CC(=O)O)NC(=O)[C@H](Cc1c[nH]cn1)NC(=O)[C@@H]1CCCN1C(=O)[C@@H](N)CO)[C@@H](C)O)C(=O)N[C@@H](CCC(N)=O)C(=O)N[C@@H](CCCCN)C(=O)N[C@@H](CC(=O)O)C(=O)N[C@@H](CC(=O)O)C(=O)O (H-SPHDTMQKDD-OH; N-terminus assumed) | > 1000 | 
N=C(N)NCCC[C@H](NC(=O)[C@H](Cc1c[nH]c2ccccc12)NC(=O)[C@H](Cc1ccccc1)NC(=O)[C@H](CC(N)=O)NC(=O)[C@@H]1CCCN1C(=O)[C@@H](N)CCCCN)C(=O)N[C@@H](Cc1ccccc1)C(=O)N[C@@H](CCC(N)=O)C(=O)N[C@@H](CC(=O)O)C(=O)N[C@@H](Cc1ccc(O)cc1)C(=O)O (H-KPNFWRFQDY-OH; N-terminus assumed) | > 1000 | 
CC[C@H](C)[C@H](NC(=O)[C@H](CO)NC(=O)[C@H](CCCCN)NC(=O)[C@H](CO)NC(=O)[C@H](CC(N)=O)NC(=O)[C@@H](NC(=O)[C@H](CO)NC(=O)[C@H](Cc1ccc(O)cc1)NC(=O)[C@H](CC(C)C)NC(=O)[C@@H](N)CCCCN)[C@@H](C)CC)C(=O)O (H-KLYSINSKSI-OH) | 225 | IC50 (HLA A*0201): 57.7 µM
CC(C)C[C@H](NC(=O)[C@H](C)NC(=O)[C@H](CC(=O)O)NC(=O)[C@H](Cc1ccccc1)NC(=O)[C@@H](NC(=O)[C@H](CC(N)=O)NC(=O)[C@@H]1CCCN1C(=O)[C@@H]1CCCN1C(=O)[C@@H](N)Cc1ccccc1)[C@@H](C)O)C(=O)O [FPPNTFDAL] (H-FPPNTFDAL-OH) | 2.72 | 
CC(C)C[C@H](NC(=O)[C@H](CCC(N)=O)NC(=O)[C@@H](NC(=O)[C@@H]1CCCN1C(=O)[C@@H](N)CC(N)=O)C(C)C)C(=O)N[C@@H](CCCCN)C(=O)N[C@@H](CO)C(=O)N[C@@H](CCCCN)C(=O)N[C@@H](Cc1ccccc1)C(=O)O (H-NPVQLKSKF-OH) | 59.6 | 
C[C@H](N)C(=O)N[C@@H](CO)C(=O)N[C@@H](Cc1ccccc1)C(=O)N[C@@H](CO)C(=O)N[C@@H](C)C(=O)N[C@@H](CO)C(=O)N[C@H](C(=O)NCC(=O)N[C@@H](Cc1ccc(O)cc1)C(=O)O)[C@@H](C)O (H-ASFSASTGY-OH) |  | IC50 (HLA A*0101): > 1000 µM; IC50 (HLA A*0301): 2.37 µM; IC50 (HLA B*4402): 31.7 µM
CC[C@H](C)[C@H](NC(=O)[C@H](CC(N)=O)NC(=O)[C@@H](NC(=O)[C@@H]1CCCN1C(=O)[C@H](CCSC)NC(=O)[C@@H]1CCCN1C(=O)[C@@H](N)Cc1c[nH]cn1)[C@@H](C)CC)C(=O)N[C@@H](CCCCN)C(=O)N[C@@H](CC(C)C)C(=O)O (H-HPMPINIKL-OH) | 0.168 | 
CC(C)[C@H](NC(=O)[C@H](CCC(=O)O)NC(=O)[C@H](Cc1ccccc1)NC(=O)[C@@H](NC(=O)[C@H](CC(=O)O)NC(=O)[C@@H](N)CC(=O)O)[C@@H](C)O)C(=O)N[C@@H](Cc1ccc(O)cc1)C(=O)N[C@@H](CO)C(=O)N[C@@H](CCC(=O)O)C(=O)N[C@@H](Cc1ccc(O)cc1)C(=O)O (H-DDTFEVYSEY-OH; N-terminus assumed) |  | IC50 (HLA A*0101): > 1000 µM; IC50 (HLA B*4402): > 1000 µM
CC[C@H](C)[C@H](NC(=O)[C@H](CC(N)=O)NC(=O)[C@H](CCCCN)NC(=O)[C@H](CCCCN)NC(=O)[C@H](CCCCN)NC(=O)[C@H](CC(C)C)NC(=O)[C@@H](N)Cc1ccccc1)C(=O)N[C@H](C(=O)N[C@@H](CC(C)C)C(=O)O)[C@@H](C)O (H-FLKKKNITL-OH) | 25.4 | IC50 (HLA A*0201): 5.34 µM
CC[C@H](C)[C@H](NC(=O)[C@@H](N)CO)C(=O)N[C@@H](C)C(=O)N[C@@H](CO)C(=O)N[C@@H](CCCCN)C(=O)N[C@@H](CC(N)=O)C(=O)N[C@@H](CC(C)C)C(=O)N[C@@H](CCSC)C(=O)N[C@@H](Cc1c[nH]c2ccccc12)C(=O)N[C@H](C(=O)O)C(C)C (H-SIASKNLMWV-OH) | > 1000 | IC50 (HLA A*0201): 284 µM; IC50 (HLA A*0301): > 1000 µM
CC[C@H](C)[C@H](N)C(=O)N1CCC[C@H]1C(=O)N1CCC[C@H]1C(=O)N[C@@H](CCC(N)=O)C(=O)N[C@H](C(=O)N[C@@H](Cc1ccccc1)C(=O)N[C@@H](CC(=O)O)C(=O)N[C@@H](Cc1ccc(O)cc1)C(=O)N1CCC[C@H]1C(=O)N[C@H](C(=O)O)[C@@H](C)CC)C(C)C (H-IPPQVFDYPI-OH) | 245 | 
